Measurements: PubChem BioAssay AID330 (DTP/NCI, 2004)
Values joined by “and” are separate entries in the source; they are usually repeats but may differ in a detail not shown here. Equal values may be shown once. Inconclusive results and toxic doses are left out.

System: P388 leukemia ip, CD2F1 mice, survival T/C
Assay: NCI In Vivo Anticancer Drug Screen. Data for tumor model P388 Leukemia (intraperitoneal) in CD2F1 (CDF1) mice
Settings: endpoint: median survival time, higher = longer survival
In short: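 Mice carrying the transplanted tumor received test compound or vehicle. Survival was recorded in each group, and the value is the treated-group measurement divided by that of the vehicle-treated control group.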

[1] = dose: 25.0 mg/kg/injection, schedule: Q01DX005 (ip), vehicle: Klucel (hydroxypropylcellulose) (HPC)
[2] = dose: 50.0 mg/kg/injection, schedule: Q01DX005 (ip), vehicle: Klucel (hydroxypropylcellulose) (HPC)
[3] = dose: 25.0 mg/kg/injection, schedule: Q01DX009 (ip), vehicle: Klucel (hydroxypropylcellulose) (HPC)
[4] = dose: 50.0 mg/kg/injection, schedule: Q01DX005 (ip), vehicle: saline with Tween-80
[5] = dose: 100.0 mg/kg/injection, schedule: Q01DX005 (ip), vehicle: saline with Tween-80
[6] = dose: 200.0 mg/kg/injection, schedule: Q01DX005 (ip), vehicle: saline with Tween-80
[7] = dose: 100.0 mg/kg/injection, schedule: Q01DX005 (ip), vehicle: Klucel (hydroxypropylcellulose) (HPC)
[8] = dose: 200.0 mg/kg/injection, schedule: Q01DX005 (ip), vehicle: Klucel (hydroxypropylcellulose) (HPC)
[9] = dose: 60.0 mg/kg/injection, schedule: Q01DX005 (ip), vehicle: saline with Tween-80
[10] = dose: 120.0 mg/kg/injection, schedule: Q01DX005 (ip), vehicle: saline with Tween-80
[11] = dose: 240.0 mg/kg/injection, schedule: Q01DX005 (ip), vehicle: saline with Tween-80

Structure (SMILES): COc1cc2c(cc1OC)[C@H]1[C@H](CO)c3ccc4c(c3CN1CC2)OCO4
- T/C (dose: 12.5 mg/kg/injection, schedule: Q01DX005 (ip), vehicle: Klucel (hydroxypropylcellulose) (HPC)): 100 % of control
- T/C [1]: 96 % of control
- T/C [2]: 94 % of control and 96 % of control

Structure (SMILES): C1Cc2c3c(c4c(c2C1)CCC4)CCC3
- T/C [3]: 91 % of control
- T/C (dose: 50.0 mg/kg/injection, schedule: Q01DX009 (ip), vehicle: Klucel (hydroxypropylcellulose) (HPC)): 95 % of control
- T/C (dose: 100.0 mg/kg/injection, schedule: Q01DX009 (ip), vehicle: Klucel (hydroxypropylcellulose) (HPC)): 91 % of control
- T/C (dose: 200.0 mg/kg/injection, schedule: Q01DX009 (ip), vehicle: Klucel (hydroxypropylcellulose) (HPC)): 100 % of control

Structure (SMILES): COc1cc(N)ccc1NC(=O)c1ccccc1
- T/C (dose: 6.25 mg/kg/injection, schedule: Q01DX009 (ip), vehicle: saline with Tween-80): 109 % of control
- T/C (dose: 12.5 mg/kg/injection, schedule: Q01DX009 (ip), vehicle: saline with Tween-80): 100 % of control

Structure (SMILES): CC(C)COc1cccc2[oH+]c(C(=O)[O-])cc(=O)c12.CC(C)COc1cccc2[oH+]c(C(=O)[O-])cc(=O)c12.[Cu+2]
- T/C (dose: 12.5 mg/kg/injection, schedule: Q04DX002 (ip), vehicle: saline with Tween-80): 104 % of control
- T/C (dose: 25.0 mg/kg/injection, schedule: Q04DX002 (ip), vehicle: saline with Tween-80): 95 % of control
- T/C (dose: 50.0 mg/kg/injection, schedule: Q04DX002 (ip), vehicle: saline with Tween-80): 94 % of control

Structure (SMILES): C=C1CC2(CC(C)CCC2=C(C)C)OC1=O (stereo not drawn)
- T/C (dose: 100.0 mg/kg/injection, schedule: Q01DX001 (ip), vehicle: saline): 101 % of control
- T/C (dose: 200.0 mg/kg/injection, schedule: Q01DX001 (ip), vehicle: saline): 100 % of control
- T/C (dose: 400.0 mg/kg/injection, schedule: Q01DX001 (ip), vehicle: saline): 101 % of control

Structure (SMILES): C=C(c1ccccc1)c1ccccc1-c1ccccc1C(=C)c1ccccc1
- T/C (dose: 100.0 mg/kg/injection, schedule: Q04DX003 (ip), vehicle: saline): 99 % of control
- T/C (dose: 200.0 mg/kg/injection, schedule: Q04DX003 (ip), vehicle: saline): 100 % of control
- T/C (dose: 400.0 mg/kg/injection, schedule: Q04DX003 (ip), vehicle: saline): 98 % of control

Structure (SMILES): O=C1c2ccccc2C(=O)c2c(O)c(NCCCN(CCO)CCO)cc(O)c21
- T/C [4]: 101 % of control
- T/C [5]: 109 % of control
- T/C [6]: 113 % of control

Structure (SMILES): COc1cccc(C(=O)c2ccccc2C(=O)O)c1
- T/C [2]: 101 % of control
- T/C [7]: 105 % of control
- T/C [8]: 103 % of control

Structure (SMILES): BrC1C(c2ccccc2)=NOC12CN=C(c1ccccc1)O2 (stereo not drawn)
- T/C (dose: 100.0 mg/kg/injection, schedule: Q01DX001 (ip), vehicle: Klucel (hydroxypropylcellulose) (HPC)): 101 % of control
- T/C (dose: 200.0 mg/kg/injection, schedule: Q01DX001 (ip), vehicle: Klucel (hydroxypropylcellulose) (HPC)): 99 % of control
- T/C (dose: 400.0 mg/kg/injection, schedule: Q01DX001 (ip), vehicle: Klucel (hydroxypropylcellulose) (HPC)): 96 % of control

Structure (SMILES): Cc1cc(C)cc(C(=O)NCc2ccc[n+]([O-])c2)c1
- T/C (dose: 60.0 mg/kg/injection, schedule: Q01DX005 (ip), vehicle: saline): 97 % of control
- T/C (dose: 120.0 mg/kg/injection, schedule: Q01DX005 (ip), vehicle: saline): 94 % of control

Structure (SMILES): O=C(NC(Cc1ccc(O)cc1)C(=O)N=Nc1c(O)[nH]c2ccccc12)c1ccccc1 (stereo not drawn)
- T/C (dose: 30.0 mg/kg/injection, schedule: Q01DX005 (ip), vehicle: saline with Tween-80): 90 % of control
- T/C [9]: 87 % of control and 90 % of control
- T/C [10]: 90 % of control
- T/C [11]: 101 % of control

Structure (SMILES): CCOC(=O)CC/C(=C\NC(=O)c1ccccc1)NC(=O)c1ccccc1
- T/C [9]: 96 % of control
- T/C [10]: 88 % of control
- T/C [11]: 90 % of control

Structure (SMILES): CCOC(=O)C(C#N)C(c1ccc2c(c1)OCO2)N(CCO)CCO (stereo not drawn)
- T/C [2]: 93 % of control
- T/C [7]: 99 % of control
- T/C [8]: 99 % of control

Structure (SMILES): O=c1oc2ccccc2n1Cc1ccc(Cl)cc1
- T/C (dose: 6.25 mg/kg/injection, schedule: Q01DX005 (ip), vehicle: saline with Tween-80): 102 % of control
- T/C (dose: 12.5 mg/kg/injection, schedule: Q01DX005 (ip), vehicle: saline with Tween-80): 93 % of control
- T/C (dose: 25.0 mg/kg/injection, schedule: Q01DX005 (ip), vehicle: saline with Tween-80): 99 % of control

Structure (SMILES): Nc1ncc2nc3c4ccccc4c(=O)cc-3oc2n1
- T/C [4]: 96 % of control
- T/C [5]: 96 % of control
- T/C [6]: 91 % of control

Structure (SMILES): CCSC(SCC)C(NC(C)=O)C(OC(C)=O)C(OC(C)=O)C(COC(C)=O)OC(C)=O (stereo not drawn)
- T/C (dose: 12.5 mg/kg/injection, schedule: Q01DX009 (ip), vehicle: other): 107 % of control
- T/C (dose: 25.0 mg/kg/injection, schedule: Q01DX009 (ip), vehicle: other): 107 % of control
- T/C (dose: 50.0 mg/kg/injection, schedule: Q01DX009 (ip), vehicle: other): 95 % of control
- T/C (dose: 100.0 mg/kg/injection, schedule: Q01DX009 (ip), vehicle: other): 107 % of control
- T/C (dose: 200.0 mg/kg/injection, schedule: Q01DX009 (ip), vehicle: other): 98 % of control

Structure (SMILES): C=C1C2CCC3(CCC4C5(C)CCCC4(C=[N+](CCO)C5)C3C2)C1O (stereo not drawn)
- T/C [3]: 94 % of control

Structure (SMILES): CCC(=O)NC(CC(=O)O)c1cccs1 (stereo not drawn)
- T/C (dose: 12.5 mg/kg/injection, schedule: Q01DX009 (ip), vehicle: saline): 102 % of control
- T/C (dose: 25.0 mg/kg/injection, schedule: Q01DX009 (ip), vehicle: saline): 104 % of control
- T/C (dose: 50.0 mg/kg/injection, schedule: Q01DX009 (ip), vehicle: saline): 107 % of control
- T/C (dose: 100.0 mg/kg/injection, schedule: Q01DX009 (ip), vehicle: saline): 90 % of control
- T/C (dose: 200.0 mg/kg/injection, schedule: Q01DX009 (ip), vehicle: saline): 93 % of control

Structure (SMILES): COc1cccc(/C=N/C(=S)NC2(C)C3CCC(C3)C2(C)C)c1O (stereo not drawn)
- T/C (dose: 12.5 mg/kg/injection, schedule: Q01DX009 (ip), vehicle: olive oil, sesame oil, peanut oil): 105 % of control
- T/C (dose: 25.0 mg/kg/injection, schedule: Q01DX009 (ip), vehicle: olive oil, sesame oil, peanut oil): 102 % of control
- T/C (dose: 50.0 mg/kg/injection, schedule: Q01DX009 (ip), vehicle: olive oil, sesame oil, peanut oil): 99 % of control
- T/C (dose: 100.0 mg/kg/injection, schedule: Q01DX009 (ip), vehicle: olive oil, sesame oil, peanut oil): 97 % of control
- T/C (dose: 200.0 mg/kg/injection, schedule: Q01DX009 (ip), vehicle: olive oil, sesame oil, peanut oil): 94 % of control
- T/C (dose: 400.0 mg/kg/injection, schedule: Q01DX009 (ip), vehicle: olive oil, sesame oil, peanut oil): 97 % of control

Structure (SMILES): O=C(CNNC(=O)c1ccncc1)Nc1ccc(S(=O)(=O)c2ccc(NC(=O)CNNC(=O)c3ccncc3)cc2)cc1
- T/C [1]: 89 % of control
- T/C [2]: 90 % of control and 91 % of control
- T/C [8]: 86 % of control

Structure (SMILES): O=C1C(=O)N(c2ccccc2)[C@@]2(c3ccccc3)C(=Nc3ccccc3)OC(c3ccccc3)=C12
- T/C (dose: 60.0 mg/kg/injection, schedule: Q01DX005 (ip), vehicle: Klucel (hydroxypropylcellulose) (HPC)): 90 % of control
- T/C (dose: 120.0 mg/kg/injection, schedule: Q01DX005 (ip), vehicle: Klucel (hydroxypropylcellulose) (HPC)): 90 % of control
- T/C (dose: 240.0 mg/kg/injection, schedule: Q01DX005 (ip), vehicle: Klucel (hydroxypropylcellulose) (HPC)): 88 % of control

Structure (SMILES): Nc1ccccc1-c1nnc(-c2ccccc2)o1
- T/C [9]: 100 % of control
- T/C [10]: 89 % of control
- T/C [11]: 86 % of control

Structure (SMILES): Cn1ccoc1=NC1CCCCC1
- T/C (dose: 50.0 mg/kg/injection, schedule: Q01DX009 (ip), vehicle: saline with Tween-80): 110 % of control
- T/C (dose: 100.0 mg/kg/injection, schedule: Q01DX009 (ip), vehicle: saline with Tween-80): 100 % of control
- T/C (dose: 200.0 mg/kg/injection, schedule: Q01DX009 (ip), vehicle: saline with Tween-80): 100 % of control

Structure (SMILES): CCC(=O)Nc1ccc(C(=O)C(C)=O)cc1
- T/C (dose: 8.0 mg/kg/injection, schedule: Q01DX009 (ip), vehicle: saline with Tween-80): 104 % of control
- T/C (dose: 16.0 mg/kg/injection, schedule: Q01DX009 (ip), vehicle: saline with Tween-80): 104 % of control
- T/C (dose: 32.0 mg/kg/injection, schedule: Q01DX009 (ip), vehicle: saline with Tween-80): 99 % of control

Structure (SMILES): O=C(Nc1ccc(F)cc1)NN1CCOCC1
- T/C [9]: 102 % of control
- T/C [10]: 104 % of control
- T/C [11]: 103 % of control

Structure (SMILES): COc1ccc(C(SCC(N)C(=O)O)(c2ccccc2)c2ccc(OC)cc2)cc1 (stereo not drawn)
- T/C (dose: 33.0 mg/kg/injection, schedule: Q04DX003 (ip), vehicle: saline): 185 % of control
- T/C (dose: 50.0 mg/kg/injection, schedule: Q04DX003 (ip), vehicle: saline): 165 % of control
- T/C (dose: 75.0 mg/kg/injection, schedule: Q04DX003 (ip), vehicle: saline): 90 % of control
